Laboratory results: ChEMBL document CHEMBL4507297, “Data for DCP probe PF-04457845” (2021)

Experiments:
Settings in all cases: Compound concentration 1000.0 nM
[1] = system: Tyrosine-protein kinase ABL1 (Homo sapiens), P00519 [Y253F]
[2] = biological target: Tyrosine-protein kinase ABL1 (Homo sapiens) (UniProt P00519)
[3] = biological target: Mitogen-activated protein kinase kinase kinase 5 (Homo sapiens) (UniProt Q99683)
[4] = biological target: Aurora kinase B (Homo sapiens) (UniProt Q96GD4)
[5] = biological target: BMP-2-inducible protein kinase (Homo sapiens) (UniProt Q9NSY1)
[6] = biological target: Tyrosine-protein kinase Blk (Homo sapiens) (UniProt P51451)
Chain of Tyrosine-protein kinase Blk (Homo sapiens) (P51451 2-505 limits assumed): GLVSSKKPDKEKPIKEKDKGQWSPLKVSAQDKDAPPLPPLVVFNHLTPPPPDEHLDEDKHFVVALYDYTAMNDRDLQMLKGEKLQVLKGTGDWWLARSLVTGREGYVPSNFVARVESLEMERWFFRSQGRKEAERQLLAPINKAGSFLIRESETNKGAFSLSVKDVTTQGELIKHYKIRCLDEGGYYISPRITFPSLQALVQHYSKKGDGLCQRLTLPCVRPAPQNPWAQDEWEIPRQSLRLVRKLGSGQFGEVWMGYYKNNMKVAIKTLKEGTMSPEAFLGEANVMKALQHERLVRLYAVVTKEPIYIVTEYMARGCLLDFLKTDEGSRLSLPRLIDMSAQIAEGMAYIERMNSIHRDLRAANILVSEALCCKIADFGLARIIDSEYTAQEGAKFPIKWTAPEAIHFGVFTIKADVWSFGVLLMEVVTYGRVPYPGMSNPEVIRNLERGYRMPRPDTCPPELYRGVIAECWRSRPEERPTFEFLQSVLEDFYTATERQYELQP

[7] = biological target: Tyrosine-protein kinase BTK (Homo sapiens) (UniProt Q06187)
Chain of Tyrosine-protein kinase BTK (Homo sapiens) (Q06187 whole entry): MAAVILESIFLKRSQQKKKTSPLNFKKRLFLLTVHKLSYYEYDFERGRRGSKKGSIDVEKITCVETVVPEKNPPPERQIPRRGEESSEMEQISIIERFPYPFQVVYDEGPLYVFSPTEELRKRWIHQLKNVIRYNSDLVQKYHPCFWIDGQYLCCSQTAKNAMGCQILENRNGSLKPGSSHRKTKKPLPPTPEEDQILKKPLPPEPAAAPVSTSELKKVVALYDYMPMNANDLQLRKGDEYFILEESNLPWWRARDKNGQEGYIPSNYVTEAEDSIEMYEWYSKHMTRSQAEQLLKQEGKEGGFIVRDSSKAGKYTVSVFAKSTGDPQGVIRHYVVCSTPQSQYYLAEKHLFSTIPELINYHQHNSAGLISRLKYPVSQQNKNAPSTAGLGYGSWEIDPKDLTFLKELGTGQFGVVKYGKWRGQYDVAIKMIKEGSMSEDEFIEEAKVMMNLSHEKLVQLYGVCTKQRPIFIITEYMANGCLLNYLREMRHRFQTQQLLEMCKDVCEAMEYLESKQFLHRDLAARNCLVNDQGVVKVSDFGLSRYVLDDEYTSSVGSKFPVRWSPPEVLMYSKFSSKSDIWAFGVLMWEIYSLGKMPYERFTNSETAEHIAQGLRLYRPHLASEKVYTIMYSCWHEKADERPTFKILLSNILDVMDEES

[8] = biological target: Calcium/calmodulin-dependent protein kinase type 1G (Homo sapiens) (UniProt Q96NX5)
[9] = biological target: Calcium/calmodulin-dependent protein kinase type II subunit delta (Homo sapiens) (UniProt Q13557)
[10] = biological target: Cyclin-dependent kinase 4 (Homo sapiens) (UniProt P11802)
[11] = biological target: Citron Rho-interacting kinase (Homo sapiens) (UniProt O14578)
[12] = biological target: Dual specificity protein kinase CLK4 (Homo sapiens) (UniProt Q9HAZ1)
Chain of Dual specificity protein kinase CLK4 (Homo sapiens) (Q9HAZ1 whole entry, looked up): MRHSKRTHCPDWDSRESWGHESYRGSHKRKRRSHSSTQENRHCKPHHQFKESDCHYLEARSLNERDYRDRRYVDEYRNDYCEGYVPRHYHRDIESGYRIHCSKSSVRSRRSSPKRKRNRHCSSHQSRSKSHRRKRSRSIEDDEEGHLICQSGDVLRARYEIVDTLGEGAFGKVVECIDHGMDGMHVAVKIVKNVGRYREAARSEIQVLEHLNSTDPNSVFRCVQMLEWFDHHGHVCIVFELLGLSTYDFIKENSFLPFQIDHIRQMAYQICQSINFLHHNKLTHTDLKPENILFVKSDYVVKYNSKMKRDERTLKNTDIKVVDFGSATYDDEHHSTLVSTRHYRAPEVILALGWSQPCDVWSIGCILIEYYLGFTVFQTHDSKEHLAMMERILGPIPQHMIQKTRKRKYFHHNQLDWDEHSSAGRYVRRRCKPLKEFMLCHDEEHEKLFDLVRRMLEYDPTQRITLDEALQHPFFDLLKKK

[13] = biological target: Death-associated protein kinase 3 (Homo sapiens) (UniProt O43293)
[14] = biological target: Serine/threonine-protein kinase DCLK2 (Homo sapiens) (UniProt Q8N568)
Chain of Serine/threonine-protein kinase DCLK2 (Homo sapiens) (Q8N568 whole entry): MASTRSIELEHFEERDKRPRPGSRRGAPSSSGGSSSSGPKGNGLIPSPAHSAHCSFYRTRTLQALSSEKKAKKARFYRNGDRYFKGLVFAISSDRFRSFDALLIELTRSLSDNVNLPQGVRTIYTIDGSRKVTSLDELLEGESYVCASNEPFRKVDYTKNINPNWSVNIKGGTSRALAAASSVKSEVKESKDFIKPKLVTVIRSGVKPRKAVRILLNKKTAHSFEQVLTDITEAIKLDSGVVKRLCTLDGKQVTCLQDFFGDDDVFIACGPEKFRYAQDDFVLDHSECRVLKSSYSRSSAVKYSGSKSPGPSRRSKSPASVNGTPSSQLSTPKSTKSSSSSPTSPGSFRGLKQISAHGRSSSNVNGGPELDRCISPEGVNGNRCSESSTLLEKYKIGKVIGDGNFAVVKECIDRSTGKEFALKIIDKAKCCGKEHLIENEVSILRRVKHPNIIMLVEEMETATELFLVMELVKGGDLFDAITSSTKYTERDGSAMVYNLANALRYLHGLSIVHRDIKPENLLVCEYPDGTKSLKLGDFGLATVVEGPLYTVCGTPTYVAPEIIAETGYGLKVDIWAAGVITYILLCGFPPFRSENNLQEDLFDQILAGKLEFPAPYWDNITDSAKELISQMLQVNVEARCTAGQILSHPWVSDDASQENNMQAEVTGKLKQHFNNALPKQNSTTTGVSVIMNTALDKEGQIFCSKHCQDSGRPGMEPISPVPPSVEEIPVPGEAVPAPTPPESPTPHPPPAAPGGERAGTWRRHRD

[15] = biological target: Serine/threonine-protein kinase DCLK3 (Homo sapiens) (UniProt Q9C098)
[16] = biological target: Ephrin type-B receptor 6 (Homo sapiens) (UniProt O15197)
[17] = biological target: Mitogen-activated protein kinase 6 (Homo sapiens) (UniProt Q16659)
[18] = biological target: Mitogen-activated protein kinase 4 (Homo sapiens) (UniProt P31152)
Chain of Mitogen-activated protein kinase 4 (Homo sapiens) (P31152 whole entry): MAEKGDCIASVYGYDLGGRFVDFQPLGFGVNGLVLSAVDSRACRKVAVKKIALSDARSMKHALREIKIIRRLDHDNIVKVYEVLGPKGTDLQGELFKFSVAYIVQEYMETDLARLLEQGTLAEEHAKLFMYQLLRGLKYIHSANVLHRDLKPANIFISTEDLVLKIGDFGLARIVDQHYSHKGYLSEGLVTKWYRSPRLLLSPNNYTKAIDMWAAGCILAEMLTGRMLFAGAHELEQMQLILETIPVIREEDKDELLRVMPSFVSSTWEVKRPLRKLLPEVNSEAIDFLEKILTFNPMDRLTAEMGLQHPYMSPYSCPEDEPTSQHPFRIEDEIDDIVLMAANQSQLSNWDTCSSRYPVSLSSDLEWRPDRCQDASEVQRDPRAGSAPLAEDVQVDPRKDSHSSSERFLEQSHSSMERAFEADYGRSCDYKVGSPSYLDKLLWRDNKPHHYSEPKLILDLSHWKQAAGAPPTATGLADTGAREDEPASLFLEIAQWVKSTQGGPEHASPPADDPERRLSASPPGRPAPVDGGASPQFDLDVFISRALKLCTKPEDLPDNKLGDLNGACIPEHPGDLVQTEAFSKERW

[19] = biological target: Tyrosine-protein kinase Fer (Homo sapiens) (UniProt P16591)
[20] = biological target: Vascular endothelial growth factor receptor 1 (Homo sapiens) (UniProt P17948)
[21] = biological target: Serine/threonine-protein kinase ICK (Homo sapiens) (UniProt Q9UPZ9)
[22] = biological target: Inhibitor of nuclear factor kappa-B kinase subunit alpha (Homo sapiens) (UniProt O15111)
[23] = biological target: Mitogen-activated protein kinase 10 (Homo sapiens) (UniProt P53779)
[24] = biological target: LIM domain kinase 2 (Homo sapiens) (UniProt P53671)
[25] = biological target: Mitogen-activated protein kinase kinase kinase 1 (Homo sapiens) (UniProt Q13233)
[26] = biological target: Mitogen-activated protein kinase kinase kinase 15 (Homo sapiens) (UniProt Q6ZN16)
[27] = biological target: Mitogen-activated protein kinase kinase kinase 4 (Homo sapiens) (UniProt Q9Y6R4)
[28] = biological target: Mitogen-activated protein kinase kinase kinase kinase 2 (Homo sapiens) (UniProt Q12851)
[29] = biological target: Myosin light chain kinase family member 4 (Homo sapiens) (UniProt Q86YV6)
[30] = biological target: Myosin-IIIa (Homo sapiens) (UniProt Q8NEV4)
[31] = biological target: Serine/threonine-protein kinase Nek9 (Homo sapiens) (UniProt Q8TD19)
[32] = biological target: Cyclin-dependent kinase 18 (Homo sapiens) (UniProt Q07002)
[33] = biological target: Platelet-derived growth factor receptor alpha (Homo sapiens) (UniProt P16234)
[34] = biological target: Phosphatidylinositol 3-kinase C2 domain-containing subunit gamma (Homo sapiens) (UniProt O75747)
[35] = system: Phosphatidylinositol 4,5-bisphosphate 3-kinase catalytic subunit alpha isoform (Homo sapiens), P42336 [H1047Y]
[36] = system: Phosphatidylinositol 4,5-bisphosphate 3-kinase catalytic subunit alpha isoform (Homo sapiens), P42336 [Q546K]
[37] = biological target: Serine/threonine-protein kinase PknB (Mycobacterium tuberculosis) (UniProt P9WI81)
[38] = biological target: Serine/threonine-protein kinase D3 (Homo sapiens) (UniProt O94806)
Chain of Serine/threonine-protein kinase D3 (Homo sapiens) (O94806 whole entry): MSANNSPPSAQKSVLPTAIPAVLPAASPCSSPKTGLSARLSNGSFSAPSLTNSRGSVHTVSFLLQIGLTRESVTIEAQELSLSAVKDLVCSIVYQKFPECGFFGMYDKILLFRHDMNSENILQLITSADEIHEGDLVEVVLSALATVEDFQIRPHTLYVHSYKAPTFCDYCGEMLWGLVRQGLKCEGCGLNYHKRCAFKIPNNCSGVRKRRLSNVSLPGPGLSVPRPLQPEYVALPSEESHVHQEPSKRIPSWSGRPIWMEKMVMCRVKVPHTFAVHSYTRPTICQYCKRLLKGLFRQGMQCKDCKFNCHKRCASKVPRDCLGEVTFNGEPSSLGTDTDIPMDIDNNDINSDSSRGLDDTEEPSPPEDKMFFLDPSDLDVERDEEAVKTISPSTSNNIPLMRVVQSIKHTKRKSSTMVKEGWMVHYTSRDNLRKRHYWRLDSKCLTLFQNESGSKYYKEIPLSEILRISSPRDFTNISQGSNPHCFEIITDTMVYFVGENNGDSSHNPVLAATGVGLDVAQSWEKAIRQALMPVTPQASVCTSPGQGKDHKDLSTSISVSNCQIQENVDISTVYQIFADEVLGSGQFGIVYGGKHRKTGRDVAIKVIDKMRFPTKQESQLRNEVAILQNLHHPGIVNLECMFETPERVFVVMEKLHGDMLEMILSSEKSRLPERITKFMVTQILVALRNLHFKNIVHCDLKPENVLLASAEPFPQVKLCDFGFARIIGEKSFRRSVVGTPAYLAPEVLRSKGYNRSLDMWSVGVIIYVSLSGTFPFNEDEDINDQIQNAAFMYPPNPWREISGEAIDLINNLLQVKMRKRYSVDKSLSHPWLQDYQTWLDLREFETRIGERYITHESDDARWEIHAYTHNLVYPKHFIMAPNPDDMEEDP

[39] = biological target: Serine/threonine-protein kinase RIO3 (Homo sapiens) (UniProt O14730)
[40] = biological target: Proto-oncogene tyrosine-protein kinase Src (Homo sapiens) (UniProt P12931)
[41] = biological target: Tyrosine-protein kinase Tec (Homo sapiens) (UniProt P42680)
[42] = biological target: Activated CDC42 kinase 1 (Homo sapiens) (UniProt Q07912)
Chain of Activated CDC42 kinase 1 (Homo sapiens) (Q07912 whole entry, looked up): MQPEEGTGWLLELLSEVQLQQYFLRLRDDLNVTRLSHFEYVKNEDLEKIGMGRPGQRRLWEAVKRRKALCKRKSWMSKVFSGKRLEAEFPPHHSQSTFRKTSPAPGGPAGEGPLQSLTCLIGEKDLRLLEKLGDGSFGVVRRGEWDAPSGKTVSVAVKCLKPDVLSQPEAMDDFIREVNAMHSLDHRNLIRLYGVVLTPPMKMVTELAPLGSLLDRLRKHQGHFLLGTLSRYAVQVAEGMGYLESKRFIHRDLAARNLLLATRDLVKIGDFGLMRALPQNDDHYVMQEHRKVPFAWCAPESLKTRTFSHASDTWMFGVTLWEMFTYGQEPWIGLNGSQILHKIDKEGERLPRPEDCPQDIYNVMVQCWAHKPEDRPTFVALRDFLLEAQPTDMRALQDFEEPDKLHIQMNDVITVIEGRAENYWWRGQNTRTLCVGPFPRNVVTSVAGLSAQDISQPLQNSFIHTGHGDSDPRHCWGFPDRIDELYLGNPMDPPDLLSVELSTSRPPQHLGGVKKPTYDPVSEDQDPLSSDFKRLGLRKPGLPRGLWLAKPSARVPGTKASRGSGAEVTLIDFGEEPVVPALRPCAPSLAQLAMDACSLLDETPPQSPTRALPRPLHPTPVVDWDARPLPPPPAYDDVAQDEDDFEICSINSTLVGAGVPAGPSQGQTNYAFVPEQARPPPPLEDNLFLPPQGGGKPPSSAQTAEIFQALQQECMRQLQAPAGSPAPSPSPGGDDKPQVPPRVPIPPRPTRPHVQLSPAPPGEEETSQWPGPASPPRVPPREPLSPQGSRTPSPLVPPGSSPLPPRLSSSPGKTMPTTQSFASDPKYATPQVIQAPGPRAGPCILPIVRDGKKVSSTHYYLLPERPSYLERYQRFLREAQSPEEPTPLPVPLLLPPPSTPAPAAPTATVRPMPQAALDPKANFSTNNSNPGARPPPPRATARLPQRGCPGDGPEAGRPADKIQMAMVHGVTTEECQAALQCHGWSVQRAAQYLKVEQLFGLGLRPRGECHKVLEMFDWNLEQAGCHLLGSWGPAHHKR

[43] = biological target: Testis-specific serine/threonine-protein kinase 3 (Homo sapiens) (UniProt Q96PN8)
[44] = biological target: Dual specificity protein kinase TTK (Homo sapiens) (UniProt P33981)
[45] = biological target: Serine/threonine-protein kinase ULK1 (Homo sapiens) (UniProt O75385)

SMILES: O=C(Nc1cccnn1)N1CCC(=Cc2cccc(Oc3ccc(C(F)(F)F)cn3)c2)CC1
- residual activity [1]: 100%
- residual activity [2]: 68%
- residual activity [3]: 100%
- residual activity [4]: 100%
- residual activity [5]: 100%
- residual activity [6]: 100%
- residual activity [7]: 100%
- residual activity [8]: 95%
- residual activity [9]: 82%
- residual activity [10]: 96%
- residual activity [11]: 79%
- residual activity [12]: 70%
- residual activity [13]: 79%
- residual activity [14]: 81%
- residual activity [15]: 85%
- residual activity [16]: 100%
- residual activity [17]: 90%
- residual activity [18]: 95%
- residual activity [19]: 74%
- residual activity [20]: 100%
- residual activity [21]: 91%
- residual activity [22]: 93%
- residual activity [23]: 100%
- residual activity [24]: 88%
- residual activity [25]: 100%
- residual activity [26]: 100%
- residual activity [27]: 100%
- residual activity [28]: 100%
- residual activity [29]: 100%
- residual activity [30]: 100%
- residual activity [31]: 100%
- residual activity [32]: 76%
- residual activity [33]: 100%
- residual activity [34]: 95%
- residual activity [35]: 82%
- residual activity [36]: 45%
- residual activity [37]: 95%
- residual activity [38]: 83%
- residual activity [39]: 100%
- residual activity [40]: 88%
- residual activity [41]: 100%
- residual activity [42]: 100%
- residual activity [43]: 100%
- residual activity [44]: 100%
- residual activity [45]: 84%

SMILES: O=C(Nc1cccnn1)N1CC(C/C=C/c2cncc(Oc3ccc(C(F)(F)F)cn3)n2)C1
- residual activity [1]: 92%
- residual activity [2]: 87%
- residual activity [3]: 98%
- residual activity [4]: 59%
- residual activity [5]: 100%
- residual activity [6]: 65%
- residual activity [7]: 59%
- residual activity [8]: 100%
- residual activity [9]: 100%
- residual activity [10]: 94%
- residual activity [11]: 100%
- residual activity [12]: 98%
- residual activity [13]: 100%
- residual activity [14]: 100%
- residual activity [15]: 100%
- residual activity [16]: 87%
- residual activity [17]: 100%
- residual activity [18]: 100%
- residual activity [19]: 100%
- residual activity [20]: 100%
- residual activity [21]: 80%
- residual activity [22]: 69%
- residual activity [23]: 77%
- residual activity [24]: 95%
- residual activity [25]: 66%
- residual activity [26]: 81%
- residual activity [27]: 100%
- residual activity [28]: 80%
- residual activity [29]: 100%
- residual activity [30]: 100%
- residual activity [31]: 100%
- residual activity [32]: 100%
- residual activity [33]: 80%
- residual activity [34]: 100%
- residual activity [35]: 100%
- residual activity [36]: 92%
- residual activity [37]: 87%
- residual activity [38]: 100%
- residual activity [39]: 100%
- residual activity [40]: 100%
- residual activity [41]: 100%
- residual activity [42]: 100%
- residual activity [43]: 98%
- residual activity [44]: 100%
- residual activity [45]: 79%
